Test results: patent US20240217968A1, “PHARMACEUTICAL COMPOUND” (DUKE STREET BIO LIMITED, priority 2021, published 2024)

Biological target: T1, recombinant human Flag-tagged PARP7 (amino acids 456-657) (Homo sapiens, UniProt Q7Z3E1)
T1 construct: recombinant human Flag-tagged PARP7 (amino acids 456-657)
T1 sequence (Q7Z3E1 456-657): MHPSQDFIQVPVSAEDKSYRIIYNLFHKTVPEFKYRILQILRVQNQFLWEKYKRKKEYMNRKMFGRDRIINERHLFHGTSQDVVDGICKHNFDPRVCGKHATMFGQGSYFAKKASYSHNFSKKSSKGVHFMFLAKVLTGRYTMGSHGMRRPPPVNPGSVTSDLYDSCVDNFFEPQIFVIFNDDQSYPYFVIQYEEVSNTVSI
Test: PARP7 biochemical DELFIA assay (auto-MARylation)
Settings: DELFIA readout, IC50 class
In short: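 Readout is DELFIA time-resolved Eu fluorescence (Ex337 nm, Em620 nm) of biotin-ADP-ribose on immobilised Flag-tagged PARP7 456-657. Enzyme (12.5-37.5 nM as added) sat 30 min with compound before biotin-NAD+ (15 μM solution, pH 7.5 HEPES buffer) started 2-3 h room-temperature self-modification, stopped with excess NAD+.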

Compound	IC50 [µM]
CC(C)(COCC(=O)N1CCN(c2ncc(C(F)(F)F)cn2)CC1)Oc1cccc2c(=O)[nH]ncc12 [Compound 34]	1 to 10
O=C(CCCCOc1cccc2c(=O)[nH]ncc12)N1CCN(c2ncc(C(F)(F)F)cn2)CC1 [Compound 35]	0.1 to 1
O=C(NCCCOc1cccc2c(=O)[nH]ncc12)N1CCN(c2ncc(C(F)(F)F)cn2)CC1 [Compound 36]	1 to 10
O=C(CCCOc1cccc2c(=O)[nH]ncc12)N1CCN(c2ncc(C(F)(F)F)cn2)CC1 [Compound 37]	1 to 10
N#Cc1ccc(N2CCN(C(=O)Cc3cccc(Cc4cccc5c(=O)[nH]ncc45)c3)CC2)nc1 [Compound 38]	1 to 10
N#Cc1ccc(N2CCN(S(=O)(=O)c3cccc(Cc4cccc5c(=O)[nH]ncc45)c3)CC2)nc1 [Compound 39]	1 to 10
N#Cc1ccc(N2CCN(C(=O)c3cccc(COc4cccc5c(=O)[nH]ncc45)c3)CC2)nc1 [Compound 40]	0.1 to 1
N#Cc1ccc(N2CCN(C(=O)c3ccc(COc4cccc5c(=O)[nH]ncc45)cc3)CC2)nc1 [Compound 41]	1 to 10
CN(CCOCC(=O)N1CCN(c2ncc(C(F)(F)F)cn2)CC1)c1cccc2c(=O)[nH]ncc12 [Compound 43]	0.1 to 1
N#Cc1ccc(N2CCN(C(=O)c3cccc(Cc4cccc5c4NCNC5=O)c3)CC2)nc1 [Compound 46]	0.1 to 1
O=C1NCNc2c(OCCOCC(=O)N3CCN(c4ncc(C(F)(F)F)cn4)CC3)cccc21 [Compound 47]	1 to 10
CNCc1cc2c(=O)[nH]ncc2n1CCOCCC(=O)N1CCN(c2ncc(C(F)(F)F)cn2)CC1 [Compound 49]	0.1 to 1
O=C(CCOCCn1cnc2c(=O)[nH]ncc21)N1CCN(c2ncc(C(F)(F)F)cn2)CC1 [Compound 51]	0.1 to 1
O=C(CCOCCc1cccc2c(=O)[nH]nnc12)N1CCN(c2ncc(C(F)(F)F)cn2)CC1 [Compound 52]	0.1 to 1
O=C(CCOCCn1ccc2c(=O)[nH]cnc21)N1CCN(c2ncc(C(F)(F)F)cn2)CC1 [Compound 53]	0.1 to 1
O=C1NCc2c(CCOCCC(=O)N3CCN(c4ncc(C(F)(F)F)cn4)CC3)cccc21 [Compound 54]	0.1 to 1
O=C1NCCc2c1ccn2CCOCCC(=O)N1CCN(c2ncc(C(F)(F)F)cn2)CC1 [Compound 56]	1 to 10
O=C(NCCOc1cccc2c(=O)[nH]ncc12)N1CCN(c2ncc(C(F)(F)F)cn2)CC1 [Compound 58]	0.1 to 1
CCc1cc2c(=O)[nH]ncc2n1CCOCCC(=O)N1CCN(c2ncc(C(F)(F)F)cn2)CC1 [Compound 59]	0.1 to 1
O=C(CCNCCN1CCCc2c1cn[nH]c2=O)N1CCN(c2ncc(C(F)(F)F)cn2)CC1 [Compound 61]	0.1 to 1
CC(COCCC(=O)N1CCN(c2ccc(C#N)cn2)CC1)N1CCCc2c1cn[nH]c2=O (centres unmarked) [Compound 62]	0.1 to 1
N#Cc1ccc(N2CCN(C(=O)c3cccc(Cc4cccc5c4C(=O)NC5=O)c3)CC2)nc1 [Compound 66]	0.1 to 1

Compound	IC50 [µM]
N#Cc1ccc(N2CCN(C(=O)CCOCCc3cc(C(F)(F)F)cc4c(=O)[nH]ncc34)CC2)nc1 [Compound 68]	0.1 to 1
O=C(CCOCCc1cc(C(F)(F)F)cc2c(=O)[nH]ncc12)N1CCN(c2ncc(C(F)(F)F)cn2)CC1 [Compound 69]	0.1 to 1
CC(COCCC(=O)N1CCN(c2ccc(C#N)cn2)CC1)c1cccc2c(=O)[nH]ncc12 (centres unmarked) [Compound 70]	1 to 10
CC(COCCC(=O)N1CCN(c2ncc(C(F)(F)F)cn2)CC1)n1ccc2c(=O)[nH]ncc21 (centres unmarked) [Compound 76]	0.1 to 1
N#Cc1ccc(N2CCN(C(=O)CCOCCn3c(C(F)(F)F)cc4c(=O)[nH]ncc43)CC2)nc1 [Compound 78]	0.1 to 1
CC1CN(C(=O)CCOCCc2cccc3c(=O)[nH]ncc23)CCN1c1ccc(C#N)cn1 (centres unmarked) [Compound 91]	≤ 0.1
N#Cc1ccc(N2CCN(C(=O)CCOCCn3ncc4c(=O)[nH]ncc43)CC2)nc1 [Compound 92]	0.1 to 1
N#Cc1ccc(N2CCN(C(=O)c3cccc(OCc4cccc5c(=O)[nH]ncc45)c3)CC2)nc1 [Compound 93]	1 to 10
O=C(c1cccc(OCc2cccc3c(=O)[nH]ncc23)c1)N1CCN(c2ncc(C(F)(F)F)cn2)CC1 [Compound 94]	1 to 10
O=C(CCOCCc1cccc2c(=O)[nH]ncc12)N1CCN(c2ccc(F)cn2)CC1 [Compound 95]	0.1 to 1
O=C(CCOCCc1cccc2c(=O)[nH]ncc12)N1CCN(c2ccc(Cl)cn2)CC1 [Compound 96]	≤ 0.1
O=C(CCOCCc1cccc2c(=O)[nH]ncc12)N1CCN(c2ccc(C(F)F)cn2)CC1 [Compound 97]	≤ 0.1
O=C(CCOCCc1cccc2c(=O)[nH]ncc12)N1CCN(c2ccc(C(F)(F)F)cn2)CC1 [Compound 98, 5-(2-(3-oxo-3-(4-(5-(trifluoromethyl)pyridin-2-yl)piperazin-1-yl)propoxy)ethyl)phthalazin-1(2H)-one]	≤ 0.1
O=C(CCOCCc1cccc2c(=O)[nH]ncc12)N1CCN(c2ncc(F)cn2)CC1 [Compound 99]	≤ 0.1
O=C(CCOCCc1cccc2c(=O)[nH]ncc12)N1CCN(c2ncc(Cl)cn2)CC1 [Compound 100]	≤ 0.1
O=C(CCOCCc1cccc2c(=O)[nH]ncc12)N1CCN(c2ncc(C(F)F)cn2)CC1 [Compound 101]	≤ 0.1
N#Cc1cnc(N2CCN(C(=O)CCOCCc3cccc4c(=O)[nH]ncc34)CC2)nc1 [Compound 102]	≤ 0.1
O=C(CCOCCc1cccc2c(=O)[nH]ncc12)N1CCN(c2ccccn2)CC1 [Compound 103]	0.1 to 1
O=C(CCOCCc1cccc2c(=O)[nH]ncc12)N1CCN(c2ncccn2)CC1 [Compound 104]	0.1 to 1
O=C(CCOCCc1cccc2c(=O)[nH]ncc12)N1CCN(c2cnc(C(F)(F)F)cn2)CC1 [Compound 105]	≤ 0.1
O=C(CCOCCc1cccc2c(=O)[nH]ncc12)N1CCN(c2ncc(C(F)(F)F)s2)CC1 [Compound 106]	≤ 0.1

Continued, values first:

IC50 [µM]	Compound
≤ 0.1	N#Cc1ccc(N2CCN(C(=O)c3cccc(OCCc4cccc5c(=O)[nH]ncc45)c3)CC2)nc1 [Compound 42]
≤ 0.1	N#Cc1ccc(N2CCN(C(=O)CCOCCN3CCCc4c3cn[nH]c4=O)CC2)nc1 [Compound 44]
≤ 0.1	O=C(CCOCCc1cccc2c(=O)[nH]c(=O)[nH]c12)N1CCN(c2ncc(C(F)(F)F)cn2)CC1 [Compound 45]
≤ 0.1	O=C1NCNc2c(CCOCCC(=O)N3CCN(c4ncc(C(F)(F)F)cn4)CC3)cccc21 [Compound 48]
≤ 0.1	O=C(CCOCCn1ncc2c(=O)[nH]ncc21)N1CCN(c2ncc(C(F)(F)F)cn2)CC1 [Compound 50, 1-(2-(3-oxo-3-(4-(5-(trifluoromethyl)pyrimidin-2-yl)piperazin-1-yl)propoxy)ethyl)-1,5-dihydro-4H-pyrazolo[3,4-d]pyridazin-4-one]
≤ 0.1	CN1CCN(CCOCCC(=O)N2CCN(c3ncc(C(F)(F)F)cn3)CC2)c2cn[nH]c(=O)c21 [Compound 55]
≤ 0.1	N#Cc1ccc(N2CCN(C(=O)c3cccc(Cc4cc(Cl)cc5c(=O)[nH]ncc45)c3)CC2)nc1 [Compound 57]
≤ 0.1	O=C(CCOCCn1c(C(F)(F)F)cc2c(=O)[nH]ncc21)N1CCN(c2ncc(C(F)(F)F)cn2)CC1 [Compound 60, 1-(2-(3-oxo-3-(4-(5-(trifluoromethyl)pyrimidin-2-yl)piperazin-1-yl)propoxy)ethyl)-2-(trifluoromethyl)-1,5-dihydro-4H-pyrrolo[2,3-d]pyridazin-4-one]
≤ 0.1	CC(COCCC(=O)N1CCN(c2ncc(C(F)(F)F)cn2)CC1)N1CCCc2c1cn[nH]c2=O (centres unmarked) [Compound 63]
≤ 0.1	N#Cc1ccc(N2CCN(C(=O)CCOCCc3cccc4c(=O)[nH]ncc34)CC2)nc1 [Compound 67]
≤ 0.1	Cc1cn(CCOCCC(=O)N2CCN(c3ncc(C(F)(F)F)cn3)CC2)c2cn[nH]c(=O)c12 [Compound 74, 3-methyl-1-(2-(3-oxo-3-(4-(5-(trifluoromethyl)pyrimidin-2-yl)piperazin-1-yl)propoxy)ethyl)-1,5-dihydro-4H-pyrrolo[2,3-d]pyridazin-4-one]
≤ 0.1	CC(COCCC(=O)N1CCN(c2ncc(C(F)(F)F)cn2)CC1)n1ccc2c(=O)[nH]ncc21 (centres unmarked) [Compound 75]
≤ 0.1	Cc1cc2c(=O)[nH]ncc2n1CCOCCC(=O)N1CCN(c2ncc(C(F)(F)F)cn2)CC1 [Compound 77]
≤ 0.1	N#Cc1ccc(N2CCN(C(=O)CCOCCc3cc(Cl)cc4c(=O)[nH]ncc34)CC2)nc1 [Compound 79]
≤ 0.1	O=C(CCOCCc1cc(Cl)cc2c(=O)[nH]ncc12)N1CCN(c2ncc(C(F)(F)F)cn2)CC1 [Compound 80, 7-chloro-5-(2-(3-oxo-3-(4-(5-(trifluoromethyl)pyrimidin-2-yl)piperazin-1-yl)propoxy)ethyl)phthalazin-1(2H)-one]
≤ 0.1	N#Cc1ccc(N2CCN(C(=O)CCOCCc3cc(F)cc4c(=O)[nH]ncc34)CC2)nc1 [Compound 81]
≤ 0.1	O=C(CCOCCc1cc(F)cc2c(=O)[nH]ncc12)N1CCN(c2ncc(C(F)(F)F)cn2)CC1 [Compound 82]
≤ 0.1	CC1CN(c2ccc(C#N)cn2)CCN1C(=O)CCOCCc1cccc2c(=O)[nH]ncc12 (centres unmarked) [Compound 85]
≤ 0.1	CC1CN(c2ncc(C(F)(F)F)cn2)CCN1C(=O)CCOCCc1cccc2c(=O)[nH]ncc12 (centres unmarked) [Compound 87]
≤ 0.1	CC1CN(c2ncc(C(F)(F)F)cn2)CCN1C(=O)CCOCCc1cccc2c(=O)[nH]ncc12 (centres unmarked) [Compound 88]
≤ 0.1	CC1CN(C(=O)CCOCCc2cccc3c(=O)[nH]ncc23)CCN1c1ncc(C(F)(F)F)cn1 (centres unmarked) [Compound 89]
≤ 0.1	CC1CN(C(=O)CCOCCc2cccc3c(=O)[nH]ncc23)CCN1c1ncc(C(F)(F)F)cn1 (centres unmarked) [Compound 90]
